The target in assay [1] is T1, Thermus sp. T351 esterase E101, SEQ ID NO.:8 (Thermus filiformis, UniProt A0A0A2WSC9).
T1 construct: T351; native about 135 kD
Put plainly: biochemical. The class given is biochemical. The text has this: The specific activity of the enzyme is ten fold greater than observed for E100 with 4-methyl-umbelliferyl butyrate (MUB) as the substrate. E101 is inhibited by PMSF but is insensitive to metal ions or metal ion chelators. […] Table 5 outlines the inhibitory effect of various substances on E101 activity.
Reaction conditions are those described in the general experimental above

The subject of assay [2] is Thermus sp. T351 esterase E100. The experiment in a line: Inhibition by reaction components of p-nitrophenylproprionate hydrolysis by E100. Format: biochemical. The settings on record: no concentration stated. As to the method: Esterase activity is measured by monitoring the hydrolysis of p-nitrophenylproprionate (pNP), or in some cases MUB. Each substrate is dissolved in acetonitrile and added to the reaction mixture (100 μM final concentration) which contain 50 mM Tris HCl pH 8.5 adjusted for temperature dependent pH variation. Reactions are thermally equilibrated at 37° C. for 5 minutes prior to initiation of the reaction by addition of 10 μL of enzyme sample, while control reactions substituted equivalent amounts of BSA. The reaction is monitored spectrophotometrically at 405 nm ε=17 mM^-1 cm^-1 for pNP and 360 nm ε=7.9 mM^-1 cm^-1 for MUB.
The rates of enzyme catalyzed hydrolysis are corrected for the spontaneous hydrolysis of the substrate. Protein concentrations are determined by either the absorbance at 280 nm or by Lowery assay. Crude activity is determined by a calorimetric assay based on the hydrolysis of 5-bromo-4-chloro-3-indoyl esters suspended in a 0.7% agar matrix on microtiter plates. A 0.1 mg/ml solution of the indolyl derivative is dissolved in a minimal volume of acetonitrile and added to a warm solution of 0.7% agar containing 0.1M phosphate buffer pH 7.5. 10 μL of this solution is distributed to microtiter plates which, when cooled, could be used with as much as 100 μL of enzyme sample and incubated at temperatures from ambient to >65° C. […]

T1 sequence (A0A0A2WSC9 entry or part of it A175T/N178S/T194S/A197P/K279Q/P281S): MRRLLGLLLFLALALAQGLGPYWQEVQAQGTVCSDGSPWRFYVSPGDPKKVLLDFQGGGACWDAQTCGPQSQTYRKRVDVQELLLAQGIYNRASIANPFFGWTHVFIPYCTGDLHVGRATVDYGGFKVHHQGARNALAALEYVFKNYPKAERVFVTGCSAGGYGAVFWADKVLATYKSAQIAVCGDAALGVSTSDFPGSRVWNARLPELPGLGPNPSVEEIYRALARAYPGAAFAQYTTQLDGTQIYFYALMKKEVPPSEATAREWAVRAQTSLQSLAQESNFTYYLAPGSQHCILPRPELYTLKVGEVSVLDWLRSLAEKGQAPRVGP

Consider `OC(CS)C(O)CS` (stereo not drawn) [DTT], for which the activity at 1000 µM in assay [1] (read-out: Relative Rate) worked out at 98%.

With `Cc1ccc(S(=O)(=O)F)cc1` [tosyl fluoride], in assay [2], the “Inhibition of E100 (in words)” value is recorded as “effectively inhibited”.

In the case of `OCCS` [BME, β-mercaptoethanol], in assay [1] (read-out: Relative Rate), the activity at 10000 µM was determined as 96%.

Take `O=S(=O)(F)Cc1ccccc1` [PMSF]: the “Relative Rate” value in assay [1] (additive 0.1 mM, None = 100%, substrate p-nitrophenylproprionate) came to 0%. In assay [1] (no concentration stated), the “Inhibition of E101 (in words)” value is “inhibited”.

Take `O=C(O)CN(CCN(CC(=O)O)CC(=O)O)CC(=O)O` [EDTA]: the activity at 1000 µM in assay [1] (read-out: Relative Rate) is 93%.

These data come from patent US6218167A, “Stable biocatalysts for ester hydrolysis” (ThermoGen, Inc., priority 1998, dated 2001).
